Test results from paper PMC12064818, “A general assay platform to study protein pharmacology using ligand-dependent structural dynamics” (Nature Communications, 2025).
Read-outs that look alike come from different tables or passages of the source.

Columns and labels:
P. pyralis FLuc = P. pyralis FLuc (Photinus pyralis, UniProt P08659); test: FLuc enzymatic luminescence assay, P. pyralis FLuc; assay type: biochemical; conditions: FLuc enzymatic assay; for IC50: read-out: IC50 or SDR50 (mM) FLuc E
P. pyralis FLuc, sequence (P08659 whole entry): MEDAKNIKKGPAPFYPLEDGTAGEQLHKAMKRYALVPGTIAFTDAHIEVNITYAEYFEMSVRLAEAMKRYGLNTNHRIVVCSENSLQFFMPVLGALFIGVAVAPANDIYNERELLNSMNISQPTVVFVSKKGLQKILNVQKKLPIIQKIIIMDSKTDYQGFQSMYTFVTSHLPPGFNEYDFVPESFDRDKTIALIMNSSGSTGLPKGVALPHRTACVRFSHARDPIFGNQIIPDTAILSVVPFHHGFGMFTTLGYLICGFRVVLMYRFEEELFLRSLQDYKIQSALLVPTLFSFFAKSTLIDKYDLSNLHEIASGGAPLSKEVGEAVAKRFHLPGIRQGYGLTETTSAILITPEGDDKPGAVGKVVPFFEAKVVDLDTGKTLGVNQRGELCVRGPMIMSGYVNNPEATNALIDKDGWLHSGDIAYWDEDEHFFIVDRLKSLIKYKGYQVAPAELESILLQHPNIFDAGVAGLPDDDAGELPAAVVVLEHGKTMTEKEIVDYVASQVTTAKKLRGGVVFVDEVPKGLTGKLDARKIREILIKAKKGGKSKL
Procedure: The enzyme activity of FLuc-N-HiBiT, FLuc-C-HiBiT, and FLuc-C-NLuc was measured similar to P. pyralis firefly luciferase (FLuc) as previously described. […] Compounds and controls were added to each plate as described in Supplementary Data 8 with a Hornet pintool system (Wako Automation). Compounds were incubated with respective enzymes for 30–60 min at room temperature protected from light and covered by solid metal lid to prevent evaporation. […] Luciferin was incubated with FLuc enzyme for 5 min before FLuc activity was then measured on a ViewLux CCD imager (PerkinElmer), with exposure times up to ten seconds with medium to high gain settings. Data were normalized to average no enzyme control as 100% enzyme inhibition and average DMSO neutral control. See Supplementary Table 4 for additional details.
Assays were run in the presence (solid symbols) or absence
(open symbols) of 10 µM ATP. Corresponding SMIL E S for NC GC IDs and source data are provided in
Supplementary Data 3 and as a Source Data file. 10
Supplementary Table 4. Protocol for Firefly luciferase (FLuc) and NanoLuc (NLuc) enzymatic
Supplementary Table 4: Protocol for Firefly luciferase (FLuc) and NanoLuc (NLuc) enzym atic lum inescence assay
Firefly luciferase (FLuc) enzym atic lum inescence assay
Sequence Param eter Value Description
No enzym e control (colum n 1) and enzym e solution (1- 10 nM FLuc enzym e) in FLuc assay
1 Reagent 4 µLbuffer; white/solid bottom , m edium bind, high base plates (Greiner), dispensed with BioRaptr
com pounds transferred to respective colum ns with Pintool
2b Test Com pounds 23 nLconcentration range) in colum ns 5- 48; com pounds transferred to respective wells with
3 Incubation 30 m in Incubate enzym e + com pounds at am bient tem p for 30 m in, protected from light
4 Reagent 3 µLAdd 3 µL of D-luciferin substrate solution to each well (final concentration 10 µM); dispensed
(§1) 5 Detector ViewLux Read plate lum inescence (Exposure = 1- 10 sec; Gain = Medium -high; Speed = Slow;
Dispensing solution was diluted in 1X PBS, pH 7.4. […]

NLuc = target: T1, NLuc (Oplophorus gracilirostris, UniProt Q9GV45, A31E/A60N/A81I/F95D/I117V/K70R/L54V/L99Q/M102K/N193R/P142E/Q151K/Q38R/Q45L/V71I/Y165I); assay type: biochemical; conditions: - ATP
T1 construct: His tag (inferred from IMAC purification); made in house; host or cells: E. coli
T1 sequence (Q9GV45 other isoform, or with tags, fused parts or gaps with the stated changes): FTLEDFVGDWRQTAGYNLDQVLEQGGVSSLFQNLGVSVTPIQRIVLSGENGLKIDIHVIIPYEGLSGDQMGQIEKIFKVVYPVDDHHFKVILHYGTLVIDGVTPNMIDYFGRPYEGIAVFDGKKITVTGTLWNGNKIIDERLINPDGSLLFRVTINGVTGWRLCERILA
Procedure: Compounds and controls were added to plates as described in Supplementary Data 8. Nano-Glo luciferase assay reagent (Promega) was prepared fresh according to manufacturer’s protocol, filtered and added at 3 μL per well across assay plates with a BioRaptr2 dispenser. Enzyme was incubated with Nano-Glo reagent for 10 min and NLuc luminescence was read on a ViewLux CCD imager (PerkinElmer), with 1 s exposure with medium gain and 2x binning. Data were normalized to average no enzyme control as 100% enzyme inhibition and average DMSO neutral control. See Supplementary Table 4 for additional details.
Supplementary Table 4. […]
Sequence Param eter Value Description […]
as §1
Dispensing solution was diluted in 1X PBS, pH 7.4.
NanoLuc luciferase (NLuc) enzym atic lum inescence assay […]
Nano-Glo luciferase assay reagent (Prom ega, Cat # N1120) prepared according to m anufacturer’s recom m endations,
4 com ponents stored at -30 °C until use, and reagent prepared fresh for each assay.
syringe filter prior to dispense.

[1] = target: FLuc-C-NLuc (firefly luciferase) (Photinus pyralis, UniProt P08659, form not given/L550V); test: SDR assay, FLuc-C-NLuc; conditions: - ATP
FLuc-C-NLuc (firefly luciferase), sequence (P08659 2-550 L550V, form open): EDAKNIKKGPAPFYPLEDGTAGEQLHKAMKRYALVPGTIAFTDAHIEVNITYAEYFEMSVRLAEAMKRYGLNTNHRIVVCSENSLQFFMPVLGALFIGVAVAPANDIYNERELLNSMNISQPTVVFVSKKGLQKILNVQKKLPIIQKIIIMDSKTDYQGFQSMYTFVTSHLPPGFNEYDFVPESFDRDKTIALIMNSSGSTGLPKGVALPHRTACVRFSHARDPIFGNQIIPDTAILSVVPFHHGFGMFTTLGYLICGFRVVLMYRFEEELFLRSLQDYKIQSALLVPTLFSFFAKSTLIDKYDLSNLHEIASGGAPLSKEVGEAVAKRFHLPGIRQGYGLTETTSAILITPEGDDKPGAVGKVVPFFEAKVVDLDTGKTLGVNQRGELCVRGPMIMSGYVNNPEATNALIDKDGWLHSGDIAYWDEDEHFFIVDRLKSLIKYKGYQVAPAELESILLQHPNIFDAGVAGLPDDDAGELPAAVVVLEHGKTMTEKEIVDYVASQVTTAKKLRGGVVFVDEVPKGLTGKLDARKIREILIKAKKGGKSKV

[2] = target: FLuc-C-HiBiT (firefly luciferase) (Photinus pyralis, UniProt P08659, form not given/L550V); test: SDR assay, FLuc-C-HiBiT; conditions: SDR max. response, clade S
FLuc-C-HiBiT (firefly luciferase), sequence (P08659 2-550 L550V, form open): as above

Row | Compound | Efficacy (%) FLuc E (P. pyralis FLuc; Clade S follow-up) [%] | pIC50 or pSDR50 FLuc E (P. pyralis FLuc; Clade S follow-up) | IC50 (P. pyralis FLuc; Clade S follow-up) [mM] | Efficacy (%) NLuc (- ATP) (NLuc) [%] | Efficacy (%) FLuc-C-NLuc SDR (-ATP) [1] [%] | % Activity (max response, + ATP) [2] [%] | % Activity (max response, - ATP) [2] [%] | pIC50 or pSDR50 FLuc E (P. pyralis FLuc) | IC50 (P. pyralis FLuc) [mM]
1 | Cc1ccc(NC(=O)C2CCN(C(=O)c3ncn4c3COC(c3ccccc3)C4)CC2)cc1C (centres unmarked) [NCGC00449904-01] | -72.15 | 5.01 | 0.00988 | 0.00 | 0.00 | 306.70 | 0.00 | – | –
2 | CC(C)CNC(=O)C1CCN(C(=O)c2ncn3c2COC(c2ccc(F)cc2)C3)CC1 (centres unmarked) [NCGC00449805-01] | -24.33 | – | – | 0.00 | 0.00 | 48.51 | 0.00 | – | –
3 | Cc1ccc(C2Cn3cnc(C(=O)N4CCC(C(=O)NC5CCCC5)CC4)c3CO2)cc1 (centres unmarked) [NCGC00449881-01] | -51.50 | 4.96 | 0.0111 | 0.00 | 0.00 | 73.27 | 0.00 | – | –
4 | COc1ccc(C2Cn3cnc(C(=O)N4CCC(C(=O)NCC5CC5)CC4)c3CO2)cc1 (centres unmarked) [NCGC00449873-01] | 0.00 | – | – | 0.00 | 0.00 | 0.00 | 0.00 | – | –
5 | O=C(Nc1ccccc1)C1CCN(C(=O)c2ncn3c2COC(c2ccc(F)cc2)C3)CC1 (centres unmarked) [NCGC00449920-01] | -13.92 | – | – | 0.00 | 0.00 | 29.50 | 0.00 | – | –
6 | COc1ccc(C2Cn3cnc(C(=O)N4CCC(C(=O)NC(C)C)CC4)c3CO2)cc1 (centres unmarked) [NCGC00449857-01] | -19.61 | – | – | 0.00 | 0.00 | 13.32 | 0.00 | – | –
7 | Cc1ccc(NC(=O)C2CCN(C(=O)c3ncn4c3COC(c3ccc(F)cc3)C4)CC2)c(C)c1 (centres unmarked) [NCGC00449930-01] | -45.61 | 4.96 | 0.0111 | 0.00 | 0.00 | 67.53 | 0.00 | – | –
8 | O=C(NCc1cccc(Cl)c1)C1CCN(C(=O)c2ncn3c2COC(c2ccccc2)C3)CC1 (centres unmarked) [NCGC00449787-01] | -81.06 | – | – | -16.86 | 0.00 | 263.69 | 0.00 | 4.96 | 0.0111
9 | O=C(NC1CCCCCCC1)C1CCN(C(=O)c2ncn3c2COC(c2ccccc2)C3)CC1 (centres unmarked) [NCGC00449770-01] | -92.12 | – | – | 0.00 | 0.00 | 338.48 | 0.00 | 5.16 | 0.00699
10 | O=C(NC1CCCC1)C1CCN(C(=O)c2ncn3c2COC(c2ccc(Cl)cc2)C3)CC1 (centres unmarked) [NCGC00449843-01] | -13.86 | – | – | 0.00 | 0.00 | 0.00 | 0.00 | – | –
11 | O=C(NCc1ccccc1)C1CCN(C(=O)c2ncn3c2COC(c2ccc(Cl)cc2)C3)CC1 (centres unmarked) [NCGC00449849-01] | -35.02 | 4.91 | 0.0124 | 0.00 | 0.00 | 28.50 | 0.00 | – | –
12 | O=C(NCCC1=CCCCC1)C1CCN(C(=O)c2ncn3c2COC(c2ccc(Cl)cc2)C3)CC1 (centres unmarked) [NCGC00449848-01] | -32.57 | 4.91 | 0.0124 | 0.00 | 0.00 | 23.50 | -6.50 | – | –
